The target in test [1] is T1, human OX-1R (Homo sapiens, UniProt O43613).
T1 construct: expressed in transfected cells; host or cells: HEK293EBNA
T1 sequence (O43613 1-425): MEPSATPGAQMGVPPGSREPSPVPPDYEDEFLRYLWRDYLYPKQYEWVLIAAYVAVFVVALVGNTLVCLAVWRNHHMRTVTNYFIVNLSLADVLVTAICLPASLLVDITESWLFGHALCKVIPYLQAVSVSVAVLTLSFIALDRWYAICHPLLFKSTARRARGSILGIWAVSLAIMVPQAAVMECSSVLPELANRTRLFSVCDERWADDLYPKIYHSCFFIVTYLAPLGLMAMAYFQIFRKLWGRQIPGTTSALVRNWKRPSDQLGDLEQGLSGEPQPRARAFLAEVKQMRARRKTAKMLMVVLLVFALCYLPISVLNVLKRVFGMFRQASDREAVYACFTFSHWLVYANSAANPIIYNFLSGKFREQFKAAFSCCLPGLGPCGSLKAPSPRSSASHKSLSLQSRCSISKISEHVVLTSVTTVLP
Put plainly: Functional Ki determination: inhibition of orexin-A induced Ca2+ release (FLIPR, Fluo-4AM) in HEK293EBNA cells stably expressing OX-1R. The test is classed as cell-based. The protocol:
Human embryonic kidney (HEK293EBNA) cells stably expressing OX-1R seeded in 96- or 384-well plates are pre-loaded with Ca^2+ sensing probe Fluo-4AM fluorescent dye for 60 min before addition of test compounds (10 μM for primary screen). Fluorescent intensity, which is a measurement of Ca^2+ concentration inside the cells, is recorded using a Fluorometric imaging plate reader (FLIPR 98R 96-well format or FLIPR 3, 384-well format, Molecular Devices) and inhibition of the peak response evoked by orexin-A (EC70 concentration) is calculated. Potency (Ki) determinations are performed utilizing the same functional assay as described for primary screening, applying the compounds in the concentration range of 340 pM to 20 μM and recording the concentration resulting in a 50% inhibition of orexin-A induced Ca^2+ release (IC50) and from there calculating the inhibition constant (Ki).
The calculation of the functional Ki values for the inhibitors was performed by use of Activity Base. The Ki value is calculated from IC50 using the Cheng Prushoff equation (with reversible inhibition that follows the Michaelis-Menten equation): Ki=IC50/(1+[S]/Km) (Cheng, Y. C. & Prushoff, W. H. (1973) Biochem. Pharmacol. 22:3099-3108).

Test [2] deals with ob/ob mice. The settings on record: 30 mg/kg i.p. once daily for 7 days plus twice daily for another 7 days; cited from earlier work.
The subject of test [3] is rats. To be noted: i.p.; cited from earlier work.

Results on four compounds are retold here after US20060217375A1, “New compounds” (priority 2004, published 2006).

What is called Ki is a measure of affinity in units of concentration, obtained from inhibition or displacement. Low readings indicate higher affinity, high ones lower affinity.

In turn, `O=C(COc1cccc(-c2ccc3c(c2)COC2(CCNCC2)O3)c1)Nc1ccccc1` [Example 8, N-phenyl-2-[3-(4H-spiro[1,3-benzodioxine-2,4′-piperidin]-6-yl)phenoxy]acetamide] yielded a Ki in test [1] of 253 nM.
On the same count and under the same terms, to `COc1cc(-c2ccc3c(c2)OC2(CCNCC2)O3)cc(OC)c1OC` [Example 4, 5-(3,4,5-trimethoxyphenyl)spiro[1,3-benzodioxole-2,4′-piperidine]] belongs 823 nM; to `COc1cc(-c2ccc3c(c2)COC2(CCNCC2)O3)cc(OC)c1OC` [Example 2, 6-[3,4,5-trimethoxyphenyl]-4H-spiro[1,3-benzodioxine-2,4′-piperidine]], 349 nM.
With `Cc1nc2ccc(NC(=O)Nc3ccnc4cccnc34)cc2o1` [SB-334867], in test [2], the body weight gain entry is recorded as “suppressed”, the cumulative food intake entry is recorded as “suppressed”, the lean body mass result was “unchanged” and the total fat mass entry was “reduced”. Besides, the behavioral satiety sequence entry in test [3] was “advances the behavioral satiety sequence increasing the time the animals spend resting”.
